Laboratory results: patent US11827616B2, “Heterocyclic compounds as pesticides” (Discovery Purchaser Corporation, priority 2018, dated 2023)
Where two headings read alike, the source gives them in different places.

What was measured:
Assay type in all cases: in vivo
Ctenocephalides felis [1] = assay: Ctenocephalides felis in vitro contact test with adult cat fleas; conditions: application rate 5 μg/cm^2 (=500 g/ha); after 48 h
How it was run: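 Glass tubes coated with acetone solutions of compound (900 ppm giving 5 μg/cm^2), dried, then held 5-10 adult cat fleas at room temperature and ambient humidity. After 48 h, dead or moribund fleas were scored; efficacy expressed as percent affected.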

Rhipicephalus sanguineus = Rhipicephalus sanguineus in vitro contact test with adult brown dog ticks; conditions: application rate 5 μg/cm^2 (=500 g/ha); after 48 h
How it was run: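 Glass tubes coated with compound in acetone (900 ppm solution giving 5 μg/cm^2), then 5-10 adult ticks held in the dark at room temperature and ambient humidity. At 48 h, ticks placed on a 45-50° C. hotplate for up to 5 min; motionless or uncoordinated ones scored dead/moribund, giving % efficacy.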

[2] = test system: cattle ticks (Boophilus microplus) Parkhurst strain, SP-resistant; assay: Boophilus microplus dip test; conditions: application rate 100 ppm, after 7 days
Method: Boophilus microplus—Dip Test
Test animals: cattle ticks (Boophilus microplus) Parkhurst strain, SP-resistant
(§1) Solvent: dimethyl sulfoxide
10 mg of active compound are dissolved in 0.5 ml of dimethyl sulfoxide. To produce a suitable formulation, the active compound solution is diluted with water to the concentration desired in each case.
This active compound formulation is pipetted into tubes. 8-10 engorged adult female cattle ticks (Boophilus microplus) are transferred into a further tube with holes. The tube is immersed into the active compound formulation, and all the ticks are completely wetted. After the liquid has run out, the ticks are transferred on filter disks into plastic dishes and stored in a climate-controlled room.
Efficacy is assessed after 7 days by laying of fertile eggs. Eggs which are not visibly fertile are stored in a climate-controlled cabinet until the larvae hatch after about 42 days. An efficacy of 100% means that none of the ticks has laid any fertile eggs; 0% means that all the eggs are fertile.

Boophilus microplus = Boophilus microplus injection test; conditions: for pest or weed control at 0.02 mg: Rhipicephalus microplus, 168 h
How it was run: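 Compound dissolved in DMSO; 1 μl injected into the abdomen of engorged adult female ticks, five per group, kept in climate-controlled room. Efficacy scored after 7 days from fertile egg laying (100% = no fertile eggs; 0% = all fertile), with unclear eggs held ~42 days until hatching.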

Lucilia cuprina = Lucilia cuprina test; conditions: application rate 100 ppm; L1 larvae; after 2 days
How it was run: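 About 20 first-instar larvae were placed in vessels of minced horsemeat with compound at the desired concentration. Compound was dissolved in DMSO and diluted in water. Percent kill scored after 2 days.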

Phaedon cochleariae = Phaedon cochleariae spray test; conditions: for pest or weed control at 500 g/ha: Phaedon cochleariae, 168 h, read-out: efficacy
How it was run: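 Chinese cabbage leaf discs sprayed with compound formulated in acetone/DMF and water with 1000 ppm emulsifier, then infested with mustard beetle larvae once dry. Percent larval kill scored after 7 days (100% = all dead, 0% = none).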

Spodoptera frugiperda = Spodoptera frugiperda spray test; conditions: for pest or weed control at 500 g/ha: Spodoptera frugiperda, 168 h, read-out: efficacy
How it was run: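 Maize leaf discs sprayed with compound formulated in acetone/dimethylformamide and diluted in water with 1000 ppm alkylaryl polyglycol ether emulsifier. Once dry, discs are infested with fall armyworm caterpillars. Efficacy in % read after 7 days: 100% all caterpillars killed, 0% none killed.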

[3] = test system: Anopheles gambiae strain RSPH (homozygot kdr); assay: Anopheles test (ANPHGB surface treatment); conditions: read-out: efficacy (mortality in %)
Method: Anopheles Test (ANPHGB Surface Treatment)
(§2) Solvent: acetone+2000 ppm rapeseed oil methyl ester (RME)
(§3) To produce an appropriate active compound formulation, the active compound is dissolved in the solvent (2 mg/ml). The active compound formulation is pipetted onto a glazed tile and, after it has dried off, adult mosquitoes of the species Anopheles gambiae strain RSPH (homozygot kdr) are placed onto the treated tile. The exposure time is 30 minutes.
(§4) 24 hours after contact with the treated surface, mortality in % is determined. 100% means that all mosquitoes have been killed; 0% means that none of the mosquitoes have been killed.

[4] = test system: Anopheles funestus strain FUMOZ-R; assay: Anopheles test (ANPHFU surface treatment); conditions: read-out: efficacy (mortality in %)
Method: Anopheles Test (ANPHFU Surface Treatment)
as §2
as §3, with “funestus” for “gambiae”, “FUMOZ-R (Hunt et al., Med Vet Entomol. 2005 Sep.; 19 (3):271-5)” for “RSPH (homozygot kdr)”
as §4

[5] = test system: Aedes aegypti strain MONHEIM; assay: Aedes test (AEDSAE surface treatment); conditions: read-out: efficacy (mortality in %)
Method: Aedes Test (AEDSAE Surface Treatment)
as §2
as §3, with “Aedes aegypti” for “Anopheles gambiae”, “MONHEIM” for “RSPH (homozygot kdr)”, “minutes. 24 hours after contact with the treated surface, mortality in % is determined. 100% means that all mosquitoes have been killed; 0% means that none of the mosquitoes have been killed.” for “minutes.”

Tetranychus urticae = Tetranychus urticae spray test, OP-resistant; conditions: application rate 500 g/ha; after 6 days
How it was run: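 Bean leaf discs carrying all stages of OP-resistant Tetranychus urticae were sprayed with compound in acetone/dimethylformamide diluted in water containing alkylaryl polyglycol ether emulsifier (1000 ppm). Mortality scored after 6 days as % efficacy (100% = all mites killed).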

Ctenocephalides felis [6] = assay: Ctenocephalides felis oral test; conditions: application rate 100 ppm in citrated cattle blood; after 2 days
Method: Ctenocephalides felis—Oral Test
as §1
To produce a suitable active compound formulation, 10 mg of active compound are mixed with 0.5 ml of dimethyl sulfoxide. Dilution with citrated cattle blood gives the desired concentration.
About 20 unfed adult cat fleas (Ctenocephalides felis) are placed into a chamber which is closed at the top and bottom with gauze. A metal cylinder whose bottom end is closed with parafilm is placed onto the chamber. The cylinder contains the blood/active compound formulation, which can be imbibed by the fleas through the parafilm membrane.
After 2 days, the kill in % is determined. 100% means that all of the fleas have been killed; 0% means that none of the fleas have been killed.

Nilaparvata lugens = Nilaparvata lugens test; conditions: application rate 500 g/ha; after 4 days
Method: Solvent: 78.0 parts by weight of acetone • • 1.5 parts by weight of dimethylformamide
(§5) Emulsifier: alkylaryl polyglycol ether
(§6) To produce a suitable active compound formulation, 1 part by weight of active compound is dissolved with the specified parts by weight of solvent and made up to the desired concentration with water containing an emulsifier concentration of 1000 ppm. To produce further test concentrations, the formulation is diluted with emulsifier-containing water.
Rice plants (Oryza sativa) are sprayed with the active compound formulation of the desired concentration and then infected with the brown planthopper (Nilaparvata lugens).
After 4 days, the efficacy in % is determined. 100% means that all of the planthoppers have been killed; 0% means that none of the planthoppers have been killed.

Myzus persicae = Myzus persicae spray test; conditions: after 5 days
Method: Myzus persicae—Spray Test
Solvent: 78 parts by weight of acetone • • 1.5 parts by weight of dimethylformamide
as §5, §6
Discs of Chinese cabbage leaves (Brassica pekinensis) infested by all stages of the green peach aphid (Myzus persicae) are sprayed with an active compound formulation of the desired concentration.
After 5 days, the efficacy in % is determined. 100% means that all the aphids have been killed; 0% means that no aphids have been killed.

[7] = application rate 20 μg/animal, after 7 days
[8] = application rate 500 g/ha, after 7 days
[9] = application rate 20 mg/m^2, exposure 30 minutes, 24 hours after contact
[10] = application rate 100 mg/m^2, exposure 30 minutes, 24 hours after contact

CON(C)CCOc1cnc(COc2ccc(Cl)c3ccccc23)nc1 [Example 99, 2-[(2-{[(4-chloro-1-naphthyl)oxy]methyl}pyrimidin-5-yl)oxy]-N-methoxy-N-methylethanamine]
efficacy (fleas dead or moribund) (Ctenocephalides felis [1]): 100%
efficacy (ticks dead or moribund) (Rhipicephalus sanguineus): 100%
efficacy (laying of fertile eggs) [2]: 100%
pest or weed control at 0.02 mg (Boophilus microplus; read-out: efficacy (laying of fertile eggs), application rate 20 μg/animal, after 7 days): 100%
efficacy (kill in %) (Lucilia cuprina): 100%
pest or weed control at 500 g/ha (Phaedon cochleariae): 100%
pest or weed control at 500 g/ha (Spodoptera frugiperda): 100%
mortality at 20 mg/m2 [3]: 80 to 100%
mortality at 20 mg/m2 [4]: 80 to 100%
mortality at 20 mg/m2 [5]: 80 to 100%

CCOc1cc(OCc2ncc(OCCN(C)OC)cc2F)ccc1Cl [Example 54]
efficacy (fleas dead or moribund) (Ctenocephalides felis [1]): 100%
efficacy (ticks dead or moribund) (Rhipicephalus sanguineus): 100%
efficacy (laying of fertile eggs) [2]: 100%
efficacy (laying of fertile eggs) (Boophilus microplus; [7]): 100%
efficacy (kill in %) (Lucilia cuprina): 100%
efficacy (Phaedon cochleariae; [8]): 100%
efficacy (Spodoptera frugiperda; [8]): 100%
efficacy (Tetranychus urticae): 100%

CON(C)CCOc1cnc(COc2ccc(Cl)c3ccccc23)c(F)c1 [Example 19]
efficacy (fleas dead or moribund) (Ctenocephalides felis [1]): 100%
efficacy (ticks dead or moribund) (Rhipicephalus sanguineus): 100%
efficacy (laying of fertile eggs) [2]: 100%
efficacy (laying of fertile eggs) (Boophilus microplus; [7]): 100%
efficacy (kill in %) (Ctenocephalides felis [6]): 80%
efficacy (kill in %) (Lucilia cuprina): 98%
efficacy (Phaedon cochleariae; [8]): 100%
efficacy (Spodoptera frugiperda; [8]): 100%

CON(C)CCOc1cnc(COc2cccc3c(Cl)c(Cl)ccc23)c(F)c1 [Example 22, 2-[(6-{[(5,6-dichloro-1-naphthyl)oxy]methyl}-5-fluoropyridin-3-yl)oxy]-N-methoxy-N-methylethanamine]
efficacy (fleas dead or moribund) (Ctenocephalides felis [1]): 100%
efficacy (ticks dead or moribund) (Rhipicephalus sanguineus): 100%
pest or weed control at 0.02 mg (Boophilus microplus; application rate 20 μg/animal, after 7 days, read-out: efficacy (laying of fertile eggs)): 100%
efficacy (kill in %) (Ctenocephalides felis [6]): 90%
efficacy (kill in %) (Lucilia cuprina): 100%
efficacy (Nilaparvata lugens): 90%
pest or weed control at 500 g/ha (Phaedon cochleariae; [8]): 100%
pest or weed control at 500 g/ha (Spodoptera frugiperda; [8]): 100%
mortality at 20 mg/m2 [3, 9]: 80 to 100%
mortality at 100 mg/m2 [3, 10]: 80 to 100%
mortality at 20 mg/m2 [4, 9]: 80 to 100%
mortality at 100 mg/m2 [4, 10]: 80 to 100%
mortality at 20 mg/m2 [5, 9]: 80 to 100%
mortality at 100 mg/m2 [5, 10]: 80 to 100%

CC(C)N(CCOc1cnc(COc2cccc3c(Cl)c(Cl)ccc23)c(F)c1)C(C)C [Example 39]
efficacy (fleas dead or moribund) (Ctenocephalides felis [1]): 100%
efficacy (laying of fertile eggs) (Boophilus microplus; [7]): 90%
efficacy (Myzus persicae; application rate 100 g/ha): 90%
efficacy (Phaedon cochleariae; [8]): 100%
efficacy (Spodoptera frugiperda; [8]): 100%

CON(C)CCOc1cnc(COc2ccc3oc4ccccc4c3c2)c(F)c1 [Example 20]
efficacy (fleas dead or moribund) (Ctenocephalides felis [1]): 100%
efficacy (ticks dead or moribund) (Rhipicephalus sanguineus): 100%
efficacy (laying of fertile eggs) (Boophilus microplus; [7]): 100%
efficacy (kill in %) (Ctenocephalides felis [6]): 95%
efficacy (kill in %) (Lucilia cuprina): 100%
efficacy (Nilaparvata lugens): 100%
efficacy (Phaedon cochleariae; [8]): 100%
efficacy (Spodoptera frugiperda; [8]): 100%

CON(C)CCOc1cnc(COc2ccc(F)c(-c3cccc(OC(F)(F)F)c3)c2)c(C)c1 [Example 59]
efficacy (fleas dead or moribund) (Ctenocephalides felis [1]): 100%
efficacy (ticks dead or moribund) (Rhipicephalus sanguineus): 100%
efficacy (laying of fertile eggs) (Boophilus microplus; [7]): 100%
efficacy (kill in %) (Lucilia cuprina): 100%
efficacy (Myzus persicae; application rate 500 g/ha): 90%
efficacy (Phaedon cochleariae; [8]): 83%
efficacy (Spodoptera frugiperda; [8]): 100%
efficacy (Tetranychus urticae): 100%

CON(C)CCOc1cnc(COc2ccc3sc4ccccc4c3c2)c(F)c1 [Example 23]
efficacy (fleas dead or moribund) (Ctenocephalides felis [1]): 100%
efficacy (ticks dead or moribund) (Rhipicephalus sanguineus): 100%
efficacy (laying of fertile eggs) [2]: 80%
efficacy (laying of fertile eggs) (Boophilus microplus; [7]): 100%
efficacy (kill in %) (Lucilia cuprina): 100%
efficacy (Phaedon cochleariae; [8]): 100%
efficacy (Spodoptera frugiperda; [8]): 100%
efficacy (Tetranychus urticae): 90%

CON(C)CCOc1cnc(COc2ccc(Cl)c(-c3cccc(OC(F)(F)F)c3)c2)c(F)c1 [Example 48]
efficacy (fleas dead or moribund) (Ctenocephalides felis [1]): 100%
efficacy (ticks dead or moribund) (Rhipicephalus sanguineus): 100%
efficacy (laying of fertile eggs) (Boophilus microplus; [7]): 100%
efficacy (kill in %) (Lucilia cuprina): 100%
efficacy (Myzus persicae; application rate 500 g/ha): 90%
efficacy (Phaedon cochleariae; [8]): 100%
efficacy (Spodoptera frugiperda; [8]): 100%
efficacy (Tetranychus urticae): 100%

CON(C)CCOc1ccc(COc2ccc(F)c(-c3cccc(OC(F)(F)F)c3)c2)cn1 [Example 10]
efficacy (Myzus persicae; application rate 500 g/ha): 90%
efficacy (Phaedon cochleariae; [8]): 100%
efficacy (Spodoptera frugiperda; [8]): 100%
efficacy (Tetranychus urticae): 100%

CON(C)CCOc1cnc(COc2cccc(-c3cccc(OC(F)(F)F)c3)c2)c(F)c1 [Example 53]
efficacy (fleas dead or moribund) (Ctenocephalides felis [1]): 100%
efficacy (ticks dead or moribund) (Rhipicephalus sanguineus): 100%
efficacy (laying of fertile eggs) (Boophilus microplus; [7]): 100%
efficacy (kill in %) (Lucilia cuprina): 100%
efficacy (Myzus persicae; application rate 500 g/ha): 90%
efficacy (Nilaparvata lugens): 100%
efficacy (Phaedon cochleariae; [8]): 100%
efficacy (Spodoptera frugiperda; [8]): 100%
efficacy (Tetranychus urticae): 100%

CON(C)CCOc1cnc(COc2ccc(F)c(-c3cccc(F)c3)c2)c(F)c1 [Example 55]
efficacy (fleas dead or moribund) (Ctenocephalides felis [1]): 100%
efficacy (ticks dead or moribund) (Rhipicephalus sanguineus): 100%
efficacy (laying of fertile eggs) [2]: 90%
efficacy (laying of fertile eggs) (Boophilus microplus; [7]): 100%
efficacy (kill in %) (Ctenocephalides felis [6]): 90%
efficacy (kill in %) (Lucilia cuprina): 100%
efficacy (Phaedon cochleariae; [8]): 83%
efficacy (Spodoptera frugiperda; [8]): 100%
efficacy (Tetranychus urticae): 100%
